The target in one assay is T1, 5-HT4 receptor (Cavia porcellus, UniProt O70528).
T1 construct: Longitudinal muscle-myenteric plexus (LMMP) preparations, 2-3cm long, are obtained from the distal colon region; from tissue; host or cells: guinea-pig distal colon longitudinal muscle-myenteric plexus
As to the kind of experiment: 5-HT4 receptor antagonist activity: 5-HT-evoked contractions of guinea-pig distal colon longitudinal muscle-myenteric plexus (LMMP) preparations. As to conditions: mean ± SEM, n=7, antagonism of 5-HT dose response curve, 45 minutes incubation. Here is the method:
5-HT4 RECEPTOR ANTAGONIST ACTIVITY
Male Dunkin Hartley guinea-pigs, weighing 200-300 g are used. Longitudinal muscle-myenteric plexus (LMMP) preparations, 2-3cm long, are obtained from the distal colon region. These are suspended under a 0.5 g load in isolated tissue baths containing Krebs Henseleit solution (NaCl 118 mM, KCl 4.7mM KH2PO4 1.2mM MgSO4 7H2O 1.2mM, Glucose 11.1mM, NaHCO3 25mM, CaCl2 6H2O 2.5mM) bubbled with 5% CO2 in O2, maintained at 37° C. and containing 1uM Granisetron and 0.1uM Methiothepin to block 5HT3 and 5HT1-like receptors respectively. 100uM Pargyline is also added to the tissues at the start of the experiment. Tissues are left for 15 minutes to equilibrate and then exposed to 5-HT at 0.1uM every 15 minutes until a uniform response is achieved. Following a half hour period for tissues to stabilise, non-cumulative dose response curves to 5-HT are constructed in all tissues. When base-lines have returned to normal, test compounds are added in the reservoirs of the tissue set-ups and washed in to the tissues. Tissues are incubated with the antagonists for 45 minutes after which a second non-cumulative dose response curve to 5-HT is constructed.
To test for selectivity of action, compounds are tested for their ability to antagonise cholinergically-mediated contractions of the guinea-pig colon, evoked by the nicotinic receptor agonist. […]

In assay [1] the test system is DMPP-evoked contractions of the guinea-pig colon. As to the kind of experiment: Selectivity test: cholinergically-mediated contractions of guinea-pig colon evoked by the nicotinic receptor agonist DMPP. As to conditions: selectivity of action. Here is the method:
To test for selectivity of action, compounds are tested for their ability to antagonise cholinergically-mediated contractions of the guinea-pig colon, evoked by the nicotinic receptor agonist. DMPP (1,1-dimethyl-4-phenyl-piperazinium iodide). For these experiments, tissues and equipment are set up as for the above, 5HT4 receptor experiments. After sensitization, non-cumulative dose response curves are constructed to DMPP. Test compounds are incubated with the tissues as above, and a second dose response curve to DMPP created. Results are given as mean pKB± SEM values for each antagonists.

From patent US20010031751A1, “Pharmaceuticals” (SmithKline Beecham p.l.c., priority 1997, published 2001) come the findings set out here.

T1 sequence (O70528 whole entry): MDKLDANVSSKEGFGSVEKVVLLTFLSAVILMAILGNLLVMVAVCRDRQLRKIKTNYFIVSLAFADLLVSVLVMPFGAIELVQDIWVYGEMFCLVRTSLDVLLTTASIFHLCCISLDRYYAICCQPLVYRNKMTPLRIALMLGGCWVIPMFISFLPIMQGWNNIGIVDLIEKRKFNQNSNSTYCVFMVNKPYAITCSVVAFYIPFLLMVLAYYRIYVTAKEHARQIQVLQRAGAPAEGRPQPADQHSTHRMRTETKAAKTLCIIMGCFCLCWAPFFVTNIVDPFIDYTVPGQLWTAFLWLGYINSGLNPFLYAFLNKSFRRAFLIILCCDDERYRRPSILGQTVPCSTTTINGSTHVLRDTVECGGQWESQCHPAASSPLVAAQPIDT

In general, Kb refers to the affinity of an antagonist, worked out from how it opposes an agonist. As to `CCCCN1CCC(CNC(=O)c2c3n(c4ccccc24)C(O)CCO3)CC1` (racemic) [compound of formula (I), (±)-N-[(1-butyl-4-piperidinyl)methyl]-3,4-dihydro-4-hydroxy-2H-[1,3]oxazino[3,2-a]indole-10-carboxamide], the antagonist equilibrium constant (Kb) on 5-HT4 receptor was 3.39 nM. In addition, the “effect on DMPP-evoked contractions” value in assay [1] is “did not significantly affect DMPP-evoked contractions”.
